Results on 1 compound are retold here after US9611276B2, “Imidazo bicyclic iminium compounds as antitumor agents” (THE BOARD OF TRUSTEES OF THE LELAND STANFORD JUNIOR …, priority 2012, dated 2017).

Holding throughout (assay type): cell-based
One assay has as its system Wnt pathway activity. The assay is described as follows: Wnt-LIGHT cell assay with Wnt3a-conditioned medium. How it is done:
Wnt-LIGHT cells [see Hyman et al. Proc Natl Acad Sci USA. 2009; 106(33):14132-7], a L-cell-based cell line containing a stably integrated TCF/LCF-dependent firefly luciferase reporter (SuperTopFlash), constitutive Renilla luciferase reporter (pRLSV40, Promega), and geneticin resistance vector (pcDNA3, Invitrogen), were cultured in DMEM (Invitrogen, 11965) containing 10% (v/v) fetal bovine serum (Invitrogen, No. 26140), 400 μg/mL G418 (Invitrogen, 11811) and 1× PenStrep (Gibco, 15140).
(§1) All test compounds were dissolved in DMSO at 50 mM, serially diluted by 1:3, 1:4 or 1:5 in a 96-well translucent microplate (Greiner bio-one, 650201) and stored at −20° C. These serial dilutions were added to assay media freshly with final DMSO concentration of 0.2% (v/v).
The Wnt-LIGHT cell assay provides a measure of Wnt pathway activity. Wnt3a-conditioned medium was prepared by culturing Wnt3a-expressing L cells obtained from ATCC in DMEM (Invitrogen, 11965) containing 10% (v/v) fetal bovine serum (Invitrogen, No. 26140) and 1× PenStrep (Gibco, 15140). […] The cells were lysed with passive lysis buffer (50 μL/well), and 10 μL of the obtained lysate were analyzed for firefly and Renilla luciferase activities using Dual-Luciferase Reporter Assay System (Promega, E1960) (50 μL/well of each reagent) on a microplate luminometer (Veritas). Biological triplicates were analyzed for each test compounds.

In assay [1] the test system is Hh pathway-dependent osteoblast differentiation. Description: C3H10T(1/2) cell assay, alkaline phosphatase. The method, then:
C3H10T(1/2) cells were obtained from ATCC and cultured in DMEM (Invitrogen, 11965) containing 10% (v/v) fetal bovine serum (Invitrogen, No. 26140), and 1× PenStrep (Gibco, 15140).
as §1
The C3H10T(1/2) cell assay provides a measure of Hh pathway-dependent osteoblast differentiation. C3H10T(1/2) cells were seeded into a 96-well plate (20,000 cells/well), cultured for 30 hrs and then incubated with test compounds in DMEM (Invitrogen, 11965) containing 0.5% (v/v) fetal bovine serum (Invitrogen, 26140), 1× PenStrep (Gibco, 15140), and 10% (v/v) Shh-N-conditioned medium for 44 hrs. The cells were lysed with lysis buffer (50 μL/well) containing 50 mM Tris-HCl, pH 9.5, 150 mM NaCl, 50 mM MgCl2, and 1% (v/v) Triton X-100. 10 μL of the obtained lysate were analyzed for alkaline phosphatase activities using CDP-Star Substrate (Applied Biosystems, T2146) reagent (50 μL/well) on a microplate luminometer (Veritas). Biological triplicates were analyzed for each test compounds.

For assay [2], the system named is endogenous Hh target gene expression (Gli1 mRNA). Description: Gli1 mRNA levels in NIH-3T3 cells with ShhN. How it is done:
(§2) NIH-3T3 cells were obtained from ATCC and cultured in DMEM (Invitrogen, 11965) containing 10% (v/v) calf serum (ATCC, 30-2030), 1 mM sodium pyruvate (Invitrogen, 11360) and 1× PenStrep (Gibco, 15140).
as §1
Quantification of Gli1 mRNA levels in NIH-3T3 cells provides a measure of endogenous Hh target gene expression. NIH 3T3 cells were seeded into 96-well plates (36,000 cells/well), cultured to confluency for 24 hrs and then incubated with test compounds in DMEM (Invitrogen, 11965) containing 0.5% (v/v) calf serum (ATCC, 30-2030), 1 mM sodium pyruvate (Invitrogen, 11360), 1× PenStrep (Gibco, 15140) and 10% (v/v) ShhN-conditioned medium for 24 hrs. The cells were lysed and the lysate was used to prepare cDNA using a Cells-to-CT kit (Ambion) according to the manufacturer's protocols. The cDNA was then quantified with Gli1 and GAPDH Taqman probes (Mm00494645m1 and Mm99999914g1, Applied Biosystems) on a Roche Lightcycler 480, using the 2nd derivative/maximum method to obtain Ct values. Biological triplicates were analyzed for each test compounds.

The target in a further assay is T1, Smo (Mus musculus, UniProt P56726).
T1 construct: endogenous in cells; host or cells: NIH 3T3
T1 sequence (P56726 33-793): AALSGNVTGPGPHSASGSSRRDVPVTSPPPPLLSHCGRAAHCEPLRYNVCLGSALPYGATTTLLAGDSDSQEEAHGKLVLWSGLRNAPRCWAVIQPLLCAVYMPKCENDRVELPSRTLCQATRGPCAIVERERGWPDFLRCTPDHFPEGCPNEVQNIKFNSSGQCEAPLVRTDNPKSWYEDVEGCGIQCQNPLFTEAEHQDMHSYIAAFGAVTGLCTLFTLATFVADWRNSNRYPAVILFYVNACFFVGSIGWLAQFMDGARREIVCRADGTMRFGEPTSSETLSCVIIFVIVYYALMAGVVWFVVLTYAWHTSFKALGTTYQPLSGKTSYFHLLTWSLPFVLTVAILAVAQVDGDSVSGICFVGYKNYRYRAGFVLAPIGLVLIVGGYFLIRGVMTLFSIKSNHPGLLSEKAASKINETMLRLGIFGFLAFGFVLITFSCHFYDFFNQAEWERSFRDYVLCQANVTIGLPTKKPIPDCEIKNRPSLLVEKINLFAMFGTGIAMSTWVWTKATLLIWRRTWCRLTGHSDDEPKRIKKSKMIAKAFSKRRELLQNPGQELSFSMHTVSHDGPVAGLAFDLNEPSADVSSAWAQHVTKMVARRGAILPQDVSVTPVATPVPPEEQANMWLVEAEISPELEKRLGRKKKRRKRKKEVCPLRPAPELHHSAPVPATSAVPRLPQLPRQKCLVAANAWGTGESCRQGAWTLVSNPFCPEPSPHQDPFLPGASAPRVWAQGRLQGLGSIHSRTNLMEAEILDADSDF
Description: Smo trafficking assay in NIH 3T3 cells. The settings on record: Hh-responsive cells, ShhN stimulation. From the text:
The cells were imaged using a Plan Apochromat 63×/1.4-0.6 oil immersion objective on an upright Leica DM4500B compound microscope.

The target in the next assay is Gli2 (Homo sapiens, UniProt P10070). Description: Overexpression of Gli2 in NIH-3T3 cells, firefly luciferase reporter. On the set-up: expressed in transfected cells; host or cells: NIH-3T3 (mouse fibroblasts). How it is done:
as §2, §1
Overexpression of Gli1 or Gli2 in NIH-3T3 cells provides a measure of Gli1- or Gli1/Gli2-induced pathway activity, respectively. NIH 3T3 cells were seeded into a 24-well plate (35,000 cells/well) and cultured for 30 hrs. […] The cells were lysed with passive lysis buffer (200 μL/well), and 10 μL of the obtained lysate were analyzed for firefly and Renilla luciferase activities using Dual-Luciferase Reporter Assay System (Promega, E1960) (50 μL/well of each reagent) on a microplate luminometer (Veritas). Biological triplicates were analyzed for each test compounds.
(In general: A reporter such as luciferase makes a cellular process visible.)

Sequence of Gli2 (P10070 whole entry, species assumed): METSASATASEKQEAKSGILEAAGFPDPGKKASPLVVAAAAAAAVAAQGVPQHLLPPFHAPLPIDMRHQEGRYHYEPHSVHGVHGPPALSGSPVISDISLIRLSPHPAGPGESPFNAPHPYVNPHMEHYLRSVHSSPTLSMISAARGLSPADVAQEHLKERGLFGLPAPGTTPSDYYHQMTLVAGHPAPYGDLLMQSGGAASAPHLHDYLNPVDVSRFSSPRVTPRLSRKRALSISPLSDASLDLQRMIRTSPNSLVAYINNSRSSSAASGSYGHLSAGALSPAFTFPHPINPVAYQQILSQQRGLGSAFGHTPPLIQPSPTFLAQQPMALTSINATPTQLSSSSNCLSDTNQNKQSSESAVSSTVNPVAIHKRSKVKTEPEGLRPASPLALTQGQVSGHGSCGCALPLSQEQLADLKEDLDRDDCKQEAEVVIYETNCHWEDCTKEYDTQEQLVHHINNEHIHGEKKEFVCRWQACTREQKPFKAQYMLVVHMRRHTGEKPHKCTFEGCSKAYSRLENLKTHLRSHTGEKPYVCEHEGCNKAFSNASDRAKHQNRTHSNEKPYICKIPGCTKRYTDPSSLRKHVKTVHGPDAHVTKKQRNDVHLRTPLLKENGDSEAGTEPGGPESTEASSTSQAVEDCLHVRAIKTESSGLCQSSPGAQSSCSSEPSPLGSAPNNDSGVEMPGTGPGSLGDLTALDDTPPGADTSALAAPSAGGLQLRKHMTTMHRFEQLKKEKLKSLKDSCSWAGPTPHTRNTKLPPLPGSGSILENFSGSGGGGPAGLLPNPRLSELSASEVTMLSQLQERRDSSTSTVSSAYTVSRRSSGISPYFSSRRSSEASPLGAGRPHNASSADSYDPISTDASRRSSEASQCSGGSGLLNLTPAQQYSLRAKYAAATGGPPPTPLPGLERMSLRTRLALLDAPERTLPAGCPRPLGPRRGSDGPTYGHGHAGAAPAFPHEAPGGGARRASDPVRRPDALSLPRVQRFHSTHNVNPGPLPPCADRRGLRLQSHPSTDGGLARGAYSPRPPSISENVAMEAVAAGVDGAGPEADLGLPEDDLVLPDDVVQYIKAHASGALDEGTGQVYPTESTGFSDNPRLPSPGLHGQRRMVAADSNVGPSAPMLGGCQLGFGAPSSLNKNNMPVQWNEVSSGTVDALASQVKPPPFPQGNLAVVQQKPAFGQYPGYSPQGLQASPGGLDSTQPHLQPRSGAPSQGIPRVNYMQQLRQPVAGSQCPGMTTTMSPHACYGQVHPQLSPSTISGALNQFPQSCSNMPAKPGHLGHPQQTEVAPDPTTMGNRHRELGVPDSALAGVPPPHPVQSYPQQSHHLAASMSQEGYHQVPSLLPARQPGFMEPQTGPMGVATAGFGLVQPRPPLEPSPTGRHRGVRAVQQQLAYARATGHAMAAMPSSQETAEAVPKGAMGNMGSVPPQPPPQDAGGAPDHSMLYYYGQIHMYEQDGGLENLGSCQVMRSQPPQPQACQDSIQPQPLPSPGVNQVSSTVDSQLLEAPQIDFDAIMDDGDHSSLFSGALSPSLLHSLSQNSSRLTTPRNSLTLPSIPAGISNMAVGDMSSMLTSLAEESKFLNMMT

`CCOc1ccc(-[n+]2cc(-c3ccc(Br)cc3)n3c2CCCCC3)cc1` [Compound A-1]: the “Inhibition of Wnt signaling” value with Wnt pathway activity is listed as “did not inhibit Wnt signaling”. The “IC50, firefly luciferase” value with Wnt pathway activity (Wnt-LIGHT w/ Wnt3a) was “No inhibition”. Further, the IC50 (in general, the concentration that gives 50% inhibition) was found to be 5.2 ± 3.7 µM in assay [1] (Osteoblast, C3H10T(½) w/ ShhN) and 5 µM in assay [2] (Mus musculus, NIH3T3, NIH-3T3 w/ ShhN). Also, the “Differentiation of C3H10T1/2 cells into alkaline-phosphatase-expressing osteoblasts” value in assay [1] (ShhN-conditioned medium) was “blocked”. The “ShhN-dependent expression of endogenous target genes (Gli1)” value in assay [2] is listed as “inhibited”. For the same compound, the “Effect on Smo localization / trafficking” value at Smo is recorded as “did not affect Smo localization”. At Gli2, the “Hh reporter expression induced by exogenous Gli2” value is “only partially inhibited”.
